Source: PMC6764124 (Journal of Neuroinflammation, 2019)
Read-outs that look alike come from different tables or passages of the source.

Legend:
latent HIV in T cells = system: latent HIV in T cells; parameters: method as in PMID 29267399; conditions: cited from earlier work
HIV-1baL = test: Antiviral activity in primary human macrophages (p24 ELISA); assay type: cell-based; conditions: for EC90: read-out: EC90 inhibition of HIV replication in macrophages
Source text: Mϕ and monocytes were isolated as previously described. […] Cells were maintained for 6 days before viral quantification (p24-ELISA). For in vitro activation marker studies, CD14^+ monocytes or fully differentiated (CD14^−/CD11b^+) Mϕ were used. Monocytes were used as a model to mimic HIV-induced activation that transpires in the periphery, wherein presence or internalization of HIV-1 in monocytes confers activation (CD14^+/CD16^+) and subsequent trafficking of “Trojan horse” monocytes across and within the BBB [11, 12]. The method used to differentiate Mϕ (CD14^−/CD11b^+) has been validated by our group to ensure that these cells are no longer expressing monocyte marker CD14 and are mature Mϕ (CD11b expression). Mϕ or monocytes were treated with various concentrations of drug prior to infection (HIV-1baL) and maintained for 3 days before quantification of HLA-DR, CD163 (Mϕ), or CD14/CD16 (monocytes; Miltenyi Biotec, San Diego, CA). Mϕ and monocytes were treated with various concentrations of drug for 6 days and stained with Near-IR live/dead dye and quantified by FACS. Antiviral potency was calculated as previously described.

[1] = system: HLA-DR and CD163 in primary human Mϕ; test: HIV-induced upregulation of activation markers HLA-DR and CD163 in primary human macrophages; assay type: cell-based
Source text: Mϕ and monocytes were isolated as previously described. […] Cells were maintained for 6 days before viral quantification (p24-ELISA). For in vitro activation marker studies, CD14^+ monocytes or fully differentiated (CD14^−/CD11b^+) Mϕ were used. […] The method used to differentiate Mϕ (CD14^−/CD11b^+) has been validated by our group to ensure that these cells are no longer expressing monocyte marker CD14 and are mature Mϕ (CD11b expression). […] Miltenyi Biotec, San Diego, CA). Mϕ and monocytes were treated with various concentrations of drug for 6 days and stained with Near-IR live/dead dye and quantified by FACS. Antiviral potency was calculated as previously described. […] Cells were harvested and stained for CD14^+ (FITC)/CD16^+ (APC) to quantify HIV-induced activation or impact of drugs on block of these markers.

[2] = system: latent HIV-1 in primary human Mϕ; test: PMA-induced reactivation of HIV-1 from latent primary human macrophages (p24 ELISA); assay type: cell-based
Experimental: Primary human Mϕ were prepared as described above and infected with an MOI of 0.5 with HIV-1BaL for 4 h prior to removal of virus and culture in virus-free medium. Supernatants were collected every 5 days, and extracellular p24 production was monitored (p24 ELISA, ABL, Inc.). Fresh culture medium was added to cultures every 5 days as supernatants were collected for p24 analysis. […] After 24 h post-reactivation, cellular supernatants were collected, and extracellular reactivated p24 was quantified (p24 ELISA). Percent inhibition of reactivation was calculated versus no drug controls, and EC50/90 were calculated as previously described.

[3] = system: non-dividing p24+ primary CD4+ T cells; test: Frequency of non-dividing p24+ latent primary CD4+ T cells in vitro; assay type: cell-based, human
J-lat T cells = test: TNF-α-induced reactivation of latent HIV-1 in J-lat T cells; assay type: cell-based, human
[4] = system: HIV replication in primary PBM cells; test: Antiviral activity in activated peripheral blood mononuclear (PBM) cells; assay type: cell-based, HIV-1; conditions: for EC90: read-out: EC90 inhibition of HIV replication in PBM cells
[5] = system: HAND mice (IC injection of HIV-infected human MDM); test: Brain HAND markers by flow cytometry in SCID mouse HAND model; assay type: in vivo; conditions: day 14, versus untreated HAND mice
Experimental: Four-week-old B6.CB17-Prkdc^scid/SzJ (SCID) male mice were injected IC with 30 μL of HIV-infected MDMs suspended in 0.9% saline, directly into the frontal lobe of the right hemisphere. The injection was done free-handed (without a stereotactic device). The injection is performed with a syringe that allows a very slow rate of infusion. We have verified the injection site with a histological staining in our previously published works, which is in the basal ganglia as described in Koneru et al.. Injections were performed on day 0 (D0). Treatments (baricitinib or saline) were given subcutaneously (SC).
Fourteen days after IC MDM inoculation, mice were sacrificed and brain samples were harvested and placed in a tissue preservative solution (Miltenyi, Bergisch Gladbach, Germany). Samples were then dissociated using a commercial kit and a gentleMacs dissociator (Miltenyi) into single cell suspensions. Cells were then washed in 2% BSA/PBS buffer and incubated with the following: (1) anti-murine CD45-Vioblue (1:10 dilution) and anti-murine MHCII primary antibody (1:500) followed by APC conjugated secondary antibody (1:500 dilution), or isotype-only controls; (2) GFAP-FITC (1:750 dilution 1′ antibody and 1:1000 2′ 488 (FITC) antibody (Abcam, Cambridge, UK); or (3) human (non-murine cross-reactive) CD163-APC (Miltenyi Biotec) for 30 min (Sigma Aldrich, St. Louis, MO). Cells were washed twice in 2% BSA/PBS and fixed with 2% paraformaldehyde for 15 min. Cells were washed twice in 2% BSA/PBS and analyzed for double positive cells by flow cytometry (Macs Quant analyzer and MacsQuantify software, Miltenyi Biotec).
Total events were collected using forward scatter (FSC) and side scatter […] followed by doublet discrimination (FSC-area versus FSC-height) using a MacsQuant flow cytometer (Miltenyi). No primary FSC/SSC gate was established, to allow all events to be collected within the heterogeneous size and granularity of the brain cells. GFAP^+ events were collected with gates and voltages established using 2′ antibody only. GFAP^+ low granularity gate was established with events up to one-log shift from negative population, and GFAP^+ high granularity (activated astrocytes) was established with events greater than two-log shift from negative population. MHCII and CD45 (mouse mononuclear phagocytes) expression were quantified based on quadrant gating for MHCII^+/CD45^−, CD45^+MHCII^−, MHCII^+/CD45^+, or MHCII^−/CD45^−. CD163^+ events (human Mϕ) were collected with gates established from isotype-only controls. Percentages and total events were collected.

[6] = parameters: method as in Olumiant.com; conditions: at concentrations more than 2 logs above concentrations in the murine model; ref Olumiant.com; cited from earlier work
[7] = Pharmacokinetics of baricitinib in mouse plasma and brain after single SC dose (LC-MS/MS); assay type: in vivo, SCID mice; conditions: for Cmax: SCID mice
Experimental: One, 4, 8, and 24 h after drug inoculation, mice were sacrificed and whole blood was collected immediately followed by cardiac perfusion with PBS prior to the extraction of brain tissues. After brain extraction, posterior fossa (the cerebellum and brainstem) was taken, snap frozen, and stored at − 70 °C. Posterior fossa from each mouse was then weighed and homogenized in a mixed water and methanol (2:1) solution. The homogenates were then centrifuged, and the pellet discarded. The supernatant was dried by evaporation using nitrogen gas, resuspended in 1 mL water, and put through Isolute-XL C18 columns (Biotage, Uppsala, Sweden). Drug was then eluted with acetonitrile and subsequently dried. […] Chromatographic separation was performed by Ultimate 3000 LC system (Thermo Scientific, MA, USA), on a Kinetex XB-C18 column (50 × 2.1 mm) with a 2.6-μm particle size (Phenomenex, CA, USA). The mobile phase A consisted of 0.1% formic acid in water, and the mobile phase B consisted of methanol. Isocratic elution was used for the separation with mobile phase A:B at 25:75 (v/v). The column was maintained at ambient temperature. The flow rate was maintained at 250 μL/min, and a 20-μL injection was used. An API5000 triple quadrupole mass spectrometer (ABsciex, MA, USA) was used for detection, with electrospray ionization in positive ion mode. The mass spectrum parameters for the analytes were set as follows: ion spray voltage, 5500 V; curtain gas, 25 psi; ion source gas 1, 40 psi; ion source gas 2, 40 psi; source temperature, 500 °C; and collision gas, 5 psi. […] Analyst software version 1.5.2 was used to operate the mass spectrometer and to perform data analysis. […] The calibration curves had r^2 value greater than 0.99.

HIV-infected individuals = system: HIV-infected individuals; parameters: method as in earlier work; conditions: cited from earlier work
HIVE mouse model = system: HIVE mouse model; parameters: method as in PMID 26851503; conditions: cited from earlier work

C[C@@H]1CCN(C(=O)CC#N)C[C@@H]1N(C)c1ncnc2[nH]ccc12 [tofacitinib]
Reactivation of latent HIV from T cells (latent HIV in T cells): block the reactivation

Nc1ccn([C@@H]2CS[C@H](CO)O2)c(=O)n1 [3TC]
EC50 (HIV-1baL; primary human Mϕ, read-out: EC50 inhibition of HIV replication in macrophages): 100 nM | EC90 (HIV-1baL; primary human Mϕ): 1200 nM | Effect on HIV-induced activation markers HLA-DR/CD163 double positive macrophages (dose response, Figure S1 F) [1]: did not have any effect | Effect on PMA induced reactivation (dose response, Figure S1 D) ([2]; macrophages): did not have any effect | Effect on frequency of non-dividing latent CD4 T cells (dose response, Figure S1 E) [3]: did not have any effect | Effect on TNF-a induced reactivation (dose response, Figure S1 C) (J-lat T cells): did not have any effect | EC50 ([4]; primary activated PBM cells, read-out: EC50 inhibition of HIV replication in PBM cells): 10 nM | EC90 ([4]; primary activated PBM cells): 900 nM

CCS(=O)(=O)N1CC(CC#N)(n2cc(-c3ncnc4[nH]ccc34)cn2)C1 [Baricitinib]
EC90 (HIV-1baL; Human immunodeficiency virus 1, Macrophage): 2100 ± 300 nM | EC90 ([1]; Macrophage, primary human macrophages, read-out: EC90 inhibition of HIV-induced HLA-DR and CD163): 1200 nM | EC90 ([2]; Macrophage, latent primary human macrophages, 50 ng/mL PMA, 24 h, read-out: EC90 inhibition of PMA induced reactivation): 700 ± 100 nM | EC90 ([3]; Homo sapiens, non-dividing p24+ primary CD4+ T cells, read-out: EC90 reduction of non dividing latent CD4 T cells): 700 ± 80 nM | Activated astrocytes (GFAP+; astrogliosis) in brain ([5]; 10 mg/kg qd SC): reduced | Percentage of activated mouse mononuclear phagocytes (MHCII/CD45 double positive cells) in brain ([5]; 10 mg/kg qd SC): significantly reduced | Activated p24+ human Mϕ in brain ([5]; 50 mg/kg qd SC (high dose)): significantly reduced | Activated astrocytes (GFAP+; astrogliosis) in brain ([5]; 50 mg/kg qd SC): reduced | Percentage of activated mouse mononuclear phagocytes (MHCII/CD45 double positive cells) in brain ([5]; 50 mg/kg qd SC): significantly reduced | Toxicity [6]: not toxic | EC90 (J-lat T cells; Homo sapiens, T-cell, read-out: EC90 inhibition of TNF-α induced reactivation): 1100 ± 300 nM | Detection in plasma and brain samples ([7]; 1, 4, 8, 24 h after 10 or 50 mg/kg SC, limit of detection 5.5 ng/mL): detected in all plasma and brain samples except for 24 h plasma samples at 10 mg/kg | Blood-brain barrier penetration ([7]; 10 and 50 mg/kg SC, mouse): can penetrate mouse BBB | Cmax ([7]; mouse, brain (posterior fossa: cerebellum and brainstem), 10 mg/kg single SC, read-out: Cmax in the brain): ~40 ng/g | Cmax ([7]; mouse, brain (posterior fossa: cerebellum and brainstem), 50 mg/kg single SC, read-out: Cmax in the brain): ~75 ng/g | Cmax ([7]; mouse, plasma, 10 mg/kg single SC, read-out: Cmax in plasma): ~200 ng/mL | Cmax ([7]; mouse, plasma, 50 mg/kg single SC, read-out: Cmax in plasma): ~1400 ng/mL | EC90 ([4]; Human immunodeficiency virus 1, PBMC): 400 ± 70 nM

N#CC[C@H](C1CCCC1)n1cc(-c2ncnc3[nH]ccc23)cn1 [ruxolitinib]
Safety and tolerability (HIV-infected individuals; HIV-infected, cART-suppressed individuals, versus control cART group): safe and well-tolerated | sCD14 (clinical marker for monocyte activation) (HIV-infected individuals; ruxolitinib arm versus cART group): significant reduction | Effect on HIVE in mouse model (HIVE mouse model): ameliorates HIVE | Reactivation of latent HIV from T cells (latent HIV in T cells): block the reactivation
